Results from US9789116B2, “Compositions and methods of modulating short-chain dehydrogenase activity” (CASE WESTERN RESERVE UNIVERSITY, priority 2013, dated 2017).
“Also recorded” adds a separate entry of the source.

Columns and labels:
[1] = system: C57BL/6J mice irradiated with 11Gy; assay: Survival of irradiated mice receiving marrow allograft (Example 6); assay type: in vivo, mouse; conditions: cohort of 3
Excerpt: The experimental design is depicted in FIG. 50.
Under the conditions of the mouse colony during this study, control mice receiving 100,000-500,000 cells are all dead between days 4-13 of study. […] Such activity would be of particular utility in settings, such as transplantation with umbilical cord stem cells, in which donor cell numbers are limited.

NSG mice = assay: Homing of human umbilical cord blood buffy coat cells in NSG mice; assay type: in vivo, mouse
Description: FIG. 93 illustrates a schema of an experiment in which immune deficient NSG mice are lethally irradiated (IR) and 12 hours later receive a transplant with CFSE dye labeled buffy coat cells from human umbilical cord blood (UCB), and number of transplanted cells that home and survive in the bone marrow of the recipient mice are then determined by FACS at 16 hours post-transplant. In different arms of the experiment mice are treated with vehicle or with SW033291. Drugs are administered following radiation, following the transplant, and again at 8 hours after the transplant.

C57BL/6J female mice = assay: Survival after whole body irradiation; assay type: in vivo, mouse; conditions: for Number of mice surviving: cohort of 3
[2] = system: mice irradiated with 11Gy; assay: Survival of mice following bone marrow transplant (Example 11); assay type: in vivo, mouse
Excerpt: A matched control cohort received injections with vehicle only. On day one mice received an infusion of donor marrow at doses of 100,000 cells; 200,000 cells; or 500,000 cells. […] Among mice receiving 200,000 donor cells, all control mice were dead by day 12.

C57BL/6J mice [3] = assay: Bone marrow of C57BL/6J mice treated in vivo; parameters: species or system mouse; conditions: IP 5 mg/kg or 20 mg/kg
Excerpt: Experimental conditions are noted on the figure.

FVB male mice = assay: Dextran sodium sulfate (DSS) induced colitis; assay type: in vivo, mouse
Hepatocyte stability = assay type: in vitro ADME; conditions: hepatocytes in culture; printed 'Stable > couple hrs' over two lines
Description: Time to inhibition refers to the time needed to inhibit the generation of NADH by 15-PGDH from the moment with drug is added into the reaction mix. Delta Tm refers to the shift in melting temperature of recombinant 15-PGDH in the presence of drug (with cofactor NADH also present). Concentration of Full Cell Line Reporter Induction refers to the concentration of drug that needs to be added to reporter cell line to achieve maximal induction of the 15-PGDH-luciferase gene fusion reporter cassette, as measured by luciferase assays. Hepatocyte stability refers to the half-life of compound in the presence of hepatocytes in culture. Toxicity refers to the concentration of compound needed to decrease cell numbers in a cell culture assay.

C57BL/6J mice [4] = assay: Liver regeneration after partial hepatectomy, C57BL/6J mice; assay type: in vivo, mouse
FVB mice = assay: Liver regeneration after partial hepatectomy, FVB mice; assay type: in vivo, mouse
[5] = system: lethally irradiated CD45.1 mice; assay: Competitive bone marrow transplant, CD45.2 chimerism; assay type: in vivo, mouse
Description: On day 3 mice were sacrificed, marrow flushed and mixed at a 1:1 ratio with vehicle treated CD45.1 marrow. 2 million whole BM cells were injected into the tail vein of lethally irradiated CD45.1 mice and percent chimerism measured via flow cytometry at weeks 8, 12, 16.

CCCC[S+]([O-])c1sc2nc(-c3cccs3)cc(-c3ccccc3)c2c1N (stereo not drawn) [SW033291, 2-(butylsulfinyl)-4-phenyl-6-(thiophen-2-yl)thieno[2,3-b]pyridin-3-amine]
Number of mice surviving ([1]; 1 × 10^5 cells, Day 1): 3
Number of mice surviving ([1]; 1 × 10^5 cells, Day 2): 3
Number of mice surviving ([1]; 1 × 10^5 cells, Day 3): 3
Number of mice surviving ([1]; 1 × 10^5 cells, Day 4): 2
Number of mice surviving ([1]; 1 × 10^5 cells, Day 5): 1
Number of mice surviving ([1]; 1 × 10^5 cells, Day 6): 0
Number of mice surviving ([1]; 2 × 10^5 cells, Day 1): 3
Number of mice surviving ([1]; 2 × 10^5 cells, Day 2): 3
Number of mice surviving ([1]; 2 × 10^5 cells, Day 3): 3
Number of mice surviving ([1]; 2 × 10^5 cells, Day 4): 3
Number of mice surviving ([1]; 2 × 10^5 cells, Day 5): 3
Number of mice surviving ([1]; 2 × 10^5 cells, Day 6): 2
Number of mice surviving ([1]; 2 × 10^5 cells, Day 7): 2
Number of mice surviving ([1]; 2 × 10^5 cells, Day 8): 2
Number of mice surviving ([1]; 2 × 10^5 cells, Day 9): 2
Number of mice surviving ([1]; 2 × 10^5 cells, Day 10): 2
Number of mice surviving ([1]; 2 × 10^5 cells, Day 11): 2
Number of mice surviving ([1]; 2 × 10^5 cells, Day 12): 1
Number of mice surviving ([1]; 2 × 10^5 cells, Day 13): 0
Number of mice surviving ([1]; 5 × 10^5 cells, Day 1): 3
Number of mice surviving ([1]; 5 × 10^5 cells, Day 2): 3
Number of mice surviving ([1]; 5 × 10^5 cells, Day 3): 3
Number of mice surviving ([1]; 5 × 10^5 cells, Day 4): 3
Number of mice surviving ([1]; 5 × 10^5 cells, Day 5): 3
Number of mice surviving ([1]; 5 × 10^5 cells, Day 6): 3
Number of mice surviving ([1]; 5 × 10^5 cells, Day 7): 3
Number of mice surviving ([1]; 5 × 10^5 cells, Day 8): 2
Number of mice surviving ([1]; 5 × 10^5 cells, Day 9): 2
Number of mice surviving ([1]; 5 × 10^5 cells, Day 10): 2
Number of mice surviving ([1]; 5 × 10^5 cells, Day 11): 2
Number of mice surviving ([1]; 5 × 10^5 cells, Day 12): 2
Number of mice surviving ([1]; 5 × 10^5 cells, Day 13): 2
increase in numbers of homed human cells in recipient bone marrow (NSG mice): ~2 fold
Number of mice surviving (C57BL/6J female mice; 7 Gy, 5 mg/kg IP daily for 7 doses, Day 5): 3
Number of mice surviving (C57BL/6J female mice; 7 Gy, 5 mg/kg IP daily for 7 doses, Day 6): 3
Number of mice surviving (C57BL/6J female mice; 7 Gy, 5 mg/kg IP daily for 7 doses, Day 7): 3
Number of mice surviving (C57BL/6J female mice; 7 Gy, 5 mg/kg IP daily for 7 doses, Day 8): 3
Number of mice surviving (C57BL/6J female mice; 7 Gy, 5 mg/kg IP daily for 7 doses, Day 9): 3
Number of mice surviving (C57BL/6J female mice; 7 Gy, 5 mg/kg IP daily for 7 doses, Day 10): 3
Number of mice surviving (C57BL/6J female mice; 7 Gy, 5 mg/kg IP daily for 7 doses, Day 11): 3
Number of mice surviving (C57BL/6J female mice; 7 Gy, 5 mg/kg IP daily for 7 doses, Day 12): 3
Number of mice surviving (C57BL/6J female mice; 7 Gy, 5 mg/kg IP daily for 7 doses, Day 13): 3
Number of mice surviving (C57BL/6J female mice; 7 Gy, 5 mg/kg IP daily for 7 doses, Day 14): 3
Number of mice surviving (C57BL/6J female mice; 7 Gy, 5 mg/kg IP daily for 7 doses, Day 15): 3
Appearance of mice (C57BL/6J female mice; 7 Gy, Day 25, printed 'Looks Healthy' over two lines): Healthy
Number of mice surviving (C57BL/6J female mice; 9 Gy, 5 mg/kg IP daily for 7 doses, Day 5): 3
Number of mice surviving (C57BL/6J female mice; 9 Gy, 5 mg/kg IP daily for 7 doses, Day 6): 3
Number of mice surviving (C57BL/6J female mice; 9 Gy, 5 mg/kg IP daily for 7 doses, Day 7): 3
Number of mice surviving (C57BL/6J female mice; 9 Gy, 5 mg/kg IP daily for 7 doses, Day 8): 3
Number of mice surviving (C57BL/6J female mice; 9 Gy, 5 mg/kg IP daily for 7 doses, Day 9): 3
Number of mice surviving (C57BL/6J female mice; 9 Gy, 5 mg/kg IP daily for 7 doses, Day 10): 3
Number of mice surviving (C57BL/6J female mice; 9 Gy, 5 mg/kg IP daily for 7 doses, Day 11): 3
Number of mice surviving (C57BL/6J female mice; 9 Gy, 5 mg/kg IP daily for 7 doses, Day 12): 2
Number of mice surviving (C57BL/6J female mice; 9 Gy, 5 mg/kg IP daily for 7 doses, Day 13): 2
Number of mice surviving (C57BL/6J female mice; 9 Gy, 5 mg/kg IP daily for 7 doses, Day 14): 1
Number of mice surviving (C57BL/6J female mice; 9 Gy, 5 mg/kg IP daily for 7 doses, Day 15): 0
longer survival than vehicle control (C57BL/6J female mice; 11Gy, 5 mg/kg IP daily for 7 doses): 48 h
Number of mice surviving (C57BL/6J female mice; 11 Gy, 5 mg/kg IP daily for 7 doses (Table 6), Day 5): 3
Number of mice surviving (C57BL/6J female mice; 11 Gy, 5 mg/kg IP daily for 7 doses (Table 6), Day 6): 3
Number of mice surviving (C57BL/6J female mice; 11 Gy, 5 mg/kg IP daily for 7 doses (Table 6), Day 7): 3
Number of mice surviving (C57BL/6J female mice; 11 Gy, 5 mg/kg IP daily for 7 doses (Table 6), Day 8): 3
Number of mice surviving (C57BL/6J female mice; 11 Gy, 5 mg/kg IP daily for 7 doses (Table 6), Day 9): 2
Number of mice surviving (C57BL/6J female mice; 11 Gy, 5 mg/kg IP daily for 7 doses (Table 6), Day 10): 0
Number of mice surviving (C57BL/6J female mice; 11 Gy, 1 dose/daily for 7 days (Table 7), Day 5): 3
Number of mice surviving (C57BL/6J female mice; 11 Gy, 1 dose/daily for 7 days (Table 7), Day 6): 3
Number of mice surviving (C57BL/6J female mice; 11 Gy, 1 dose/daily for 7 days (Table 7), Day 7): 3
Number of mice surviving (C57BL/6J female mice; 11 Gy, 1 dose/daily for 7 days (Table 7), Day 8): 2
Number of mice surviving (C57BL/6J female mice; 11 Gy, 1 dose/daily for 7 days (Table 7), Day 9): 1
Number of mice surviving (C57BL/6J female mice; 11 Gy, 1 dose/daily for 7 days (Table 7), Day 10): 0
Number of mice surviving (C57BL/6J female mice; 11 Gy, 1 dose/daily, continuous every day, Day 5): 3
Number of mice surviving (C57BL/6J female mice; 11 Gy, 1 dose/daily, continuous every day, Day 6): 3
Number of mice surviving (C57BL/6J female mice; 11 Gy, 1 dose/daily, continuous every day, Day 7): 3
Number of mice surviving (C57BL/6J female mice; 11 Gy, 1 dose/daily, continuous every day, Day 8): 3
Number of mice surviving (C57BL/6J female mice; 11 Gy, 1 dose/daily, continuous every day, Day 9): 2
Number of mice surviving (C57BL/6J female mice; 11 Gy, 1 dose/daily, continuous every day, Day 10): 0
Number of mice surviving (C57BL/6J female mice; 11 Gy, 7 days, 2 dose daily, Day 5): 3
Number of mice surviving (C57BL/6J female mice; 11 Gy, 7 days, 2 dose daily, Day 6): 3
Number of mice surviving (C57BL/6J female mice; 11 Gy, 7 days, 2 dose daily, Day 7): 3
Number of mice surviving (C57BL/6J female mice; 11 Gy, 7 days, 2 dose daily, Day 8): 3
Number of mice surviving (C57BL/6J female mice; 11 Gy, 7 days, 2 dose daily, Day 9): 2
Number of mice surviving (C57BL/6J female mice; 11 Gy, 7 days, 2 dose daily, Day 10): 0
longer survival than vehicle control, on average (C57BL/6J female mice; 11Gy, any of three 5 mg/kg dosing schedules): 1 to 2 days
median survival ([2]; 100,000 donor cells, 5 mg/kg twice daily): approximate doubling of median survival
survival ([2]; 200,000 donor cells, 30 days of observation): survived at 30 days of observation
survival ([2]; 500,000 donor cells, day 30): all survived
percent of Sca1+/c-Kit+ cells in lineage negative (SKL) cells (C57BL/6J mice [3]): unchanged
change from baseline weight (FVB male mice; 22 days, P=0.001): greater weight at all time points
colon ulcer formation (FVB male mice; colonoscopy days 8, 11, 15): prevents two-thirds of ulcer formation
reduction of length of ulcerated mucosa versus control (FVB male mice; day 15, P=0.045): 61%
body weight and colon length (FVB male mice; day 22): greater body weight and greater colon lengths
MEICS scores (FVB male mice; days 8, 11 and 15): significantly less colitis activity
Hepatocyte stability (Hepatocyte stability): couple hrs
mitosis per high powered field in liver (C57BL/6J mice [4]; 5 mg/kg IP daily, post-operative days 3 and 4): significantly increased hepatic mitosis; also recorded: significantly increased numbers of mitotic liver cells
serum ALT levels (C57BL/6J mice [4]; one mouse each, 5 mg/kg IP bid, post-operative days 1-7): lower
BrdU positive (S-phase) cells in liver (FVB mice; post-operative day 2): clear increase in numbers of BrdU positive cells
increase in median S-phase cells (FVB mice; post-operative day 2, P<0.05): greater than 2 fold
greater liver weight than control mice (FVB mice; post-operative day 7): approximately 25%
percent blood chimerism of CD45.2 marked cells ([5]; donor 5 mg/kg IP daily for 3 doses, weeks 12 and 16): significantly increased
contribution to B and T cell populations ([5]; week 16): significant increase in contribution to B and T cell populations
